The subject of experiment [1] is BFU-e (burst forming unit-erythroid) colonies from peripheral blood mononuclear cells. Nature of the experiment: Stimulation of erythroid proliferation in cell cultures (BFU-e colony growth). Format: cell-based, human. The conditions noted are these: 0.1 mM; 13-14 days; compared with control cultures. The procedure: Peripheral blood was collected from normal volunteers and patients with anemia due to sickle cell disease or thalassemia. Mononuclear cells were isolated by Ficoll-Hypaque (Pharmacia Biotech; Piscataway, N.J.) centrifugation and cultured in Iscove's Modified Dulbecco's Media (IMDM; GIBCO/BRL; Grand Island, N.Y.) supplemented with 10% fetal calf serum, 300 μg/ml glutamine, 3 units/ml IL-3 (Amgen; Thousand Oaks, Calif.), and 2 units/ml erythropoietin (Terry Fox Labs; Vancouver, B.C.). Chemical compounds were obtained from Sigma Chemical (St. Louis, Mo.) or Aldrich Chemical (Milwaukee, Wis.), unless otherwise indicated, and formulated into pharmaceutical compositions by dissolving in aqueous solutions of media or sterile water pH adjusted to about 7.4. Solutions were sterilized by passage at least once through 0.22 micron Nalgene filters and added to cell cultures at final concentrations that are pharmaceutically achievable in vivo (typically between about 0.1 mM to 2.0 mM). Cells were incubated with compounds for between 13-14 days at 37° C. in humidified 5% CO2, and fed and passed, as necessary. Colony growth, proportion of fetal globin-expressing cells and amounts of fetal globin production were assayed. Results are presented in Table 1 as BFU-e stimulation (colony growth).

Experiment [2] relates to erythroid progenitor cells cultured from human cord blood. The experiment in a line: Fetal globin expression in human cell cultures (3H-leucine labelled globin chains, densitometry). The format is cell-based. The essentials: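 Human cord-blood mononuclear cells were grown in IMDM with 30% FCS and 2 U/ml erythropoietin, with compound present for 12–13 days or overnight. Colonies were labelled with 3H-leucine and chased overnight in leucine-free medium with compound. Globin chains were quantified by electrophoresis with Coomassie densitometry and autoradiography, relative to untreated cells from the same donor.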

The test system of experiment [3] is proximal promoter of the gamma globin gene in K562 cells. The experiment in a line: Gamma globin promoter-neomycin (NEO) transfection, colony survival in G418. The format is cell-based, human. The conditions noted are these: 1 mM, 8 weeks. The procedure:
Gamma globin promoter-neomycin transfection experiments were performed to determine if compounds act by inducing an increase in activity from the proximal promoter of the gamma globin gene. Constructs containing 61 by of the proximal gamma globin promoter were linked to the reporter gene for neomycin phosphotransferase (NEO) and transfected into permissive K562 cells by electroporation. After 18 hours, transfected cells were passed at 10^3 cells per well into RPMI media containing G418 (neomycin), which kills all mammalian cells unless the gene for NEO is expressed. Phenoxyacetic acid and thiophenoxyacetic acid were added to some of the cells plated into the RPMI/G418 media at concentrations of 1 mM. Cultures were incubated for 8 weeks with media changes performed as needed. Colonies which survived and grew in the presence of G418 were scored and the number of such colonies was compared to those generated when the cells were plated into G418 media without the test compounds. No colonies in the 24 wells survived in the absence of compounds. There was a greater than 6-fold (>600%) increase in proportions of colonies surviving the presence of phenoxyacetic acid (6/24 wells) and a three-fold (300%) increase in survival in the presence of thiophenoxyacetic acid (3/24 wells).

Experiment [4] relates to anemic juvenile baboons. Nature of the experiment: In vivo reticulocyte proliferation and globin expression in phlebotomized anemic baboons. Also noted: species or system baboon. The procedure, abridged: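 Juvenile female baboons, phlebotomized daily to hemoglobin 7.0-7.5 g/dl, received compounds sequentially with washout to baseline reticulocytes, each animal its own control. HbF-positive reticulocytes were counted by dual-antibody FACS. γ/(γ+β) globin synthesis ratio came from ^3H-leucine labeling and chromatographic chain separation, unadjusted for phlebotomy.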

Setting [5] is: 1,000 to 1,500 mg/kg/day, 4 days.

As to `O=C(O)COc1ccccc1` [PAA, Phenoxyacetic acid], the “BFU-e Stimulation (colony growth)” value in experiment [1] came to 135%. Besides, the “Gamma Increase” value in experiment [2] (Exp. A, 0.1 mM, 12-13 days, above untreated cells) stood at 6%; in experiment [2] (Exp. B, 0.5 mM, 12-13 days) it was 13%; in experiment [2] (Exp. C, 0.5 mM, overnight), 3.6%. In addition, the “Gamma/(Gamma + Beta)” value in experiment [2] (Exp. A, 0.1 mM, 12-13 days, untreated 76.0%) is reported as 82.0%; in experiment [2] (Exp. B, 0.5 mM, 12-13 days, untreated 25.4%, 27.5%), 38.8%; in experiment [2] (Exp. C, 0.5 mM, overnight, untreated 52.0%), 55.6%. Besides, the “increase in proportions of colonies surviving G418” value is reported as > 600% in experiment [3] and “greater than 6 fold” in experiment [3] (no colonies without compounds). The “wells with surviving colonies” value in experiment [3] (0 of 24 wells without compounds) was 6/24. For the same compound, the “time the effect maintained itself after drug was discontinued” value in experiment [4] (1,500 mg/kg each day, 5 days) is recorded as “two days”. In addition, in experiment [4] (1,500 mg/kg each day, 5 days, from 1.9%), the reticulocytes after treatment is 9.2 % of all red blood cells. In addition, the “white blood cell count after treatment” value in experiment [4] (1,500 mg/kg each day, 5 days, from 6.9) is 9.5 ×10^3 cells/μl. In addition, in experiment [4] (1,500 mg/kg each day, 5 days, from 22%), the “packed red blood cell volume after treatment” value is recorded as 25.4%. Further, the “fetal reticulocytes, fold above baseline” value in experiment [4] (setting [5]) is on record as “eight-fold”. For the same compound, in experiment [4] (setting [5]), the “fetal reticulocytes, percent above baseline” value is on record as 800%. The “increase in output of fetal globin production over basal levels” value in experiment [4] (setting [5]) is given as 4,000%. Also, in experiment [4] (1,000 to 1,500 mg/kg/day, 4 days, from 0%), the “fetal globin protein synthesis after treatment” value came to 5%. Besides, the “fetal reticulocytes after treatment” value in experiment [4] (another juvenile baboon, intravenous 1,000 to 1,500 mg/kg/day, 4 days, from 2%) is given as 16%. In addition, the “total hemoglobin after treatment” value in experiment [4] (infused 1,500 mg/kg each day, 5 days (FIG. 7), from 6.8) stood at 7.6 grams/dl. Besides, the “proportion of fetal reticulocytes on treatment” value in experiment [4] (infused 5 days, 500, 1,000 and 1,500 mg/kg (8 hours each), after 3 days (FIG. 9), from 12%) stood at 27%.

`CCCC(=O)O` [AB, arginine butyrate]: in experiment [4] (1,000 mg/kg for 5 days or 2,000 mg/kg for 3 days), the “response of the same monkey” value is “had not responded”.

The record behind these values is patent publication US7910624B1, “Compositions for the treatment of blood disorders” (The Trustees of Boston University, priority 1995, dated 2011).
